PMC3688238, “The effect of different dosing regimens of motesanib on the gallbladder: a randomized phase 1b study in patients with advanced solid tumors” (BMC Cancer, 2013)
Like-named read-outs stand apart in the source and are kept apart here.

What was measured:
Assay type in all cases: in vivo, human
gallbladder [1] = experiment: Gallbladder function (ejection fraction) by CCK-HIDA, investigator assessment; conditions: for Gallbladder ejection fraction, mean change from baseline (95% CI): CCK-HIDA
Procedure: (§1) Gallbladder volume was assessed by ultrasound after a ≥8 hours fast at screening (within 21 days prior to randomization) and before the motesanib morning dose on days 8 and 15 of cycle 1, on day 1 of cycles 2 and 3, every 6 weeks thereafter, and at the safety follow-up (30 to 33 days after the last dose). Ultrasound was performed weekly when motesanib was withheld and weekly for 4 weeks following treatment discontinuation. Gallbladder ultrasound measurements were assessed by independent central radiologic review (MedQIA, Los Angeles, CA, USA). Gallbladder ejection fraction was assessed by investigators or other study site personnel using CCK-HIDA at screening (within 21 days of randomization), on day 1 of cycle 2, day 1 of cycle 6 (±3 days), and at the safety follow-up. Study-specific training and standard operating procedures were supplied to all radiology technicians.
(§2) The ultrasound and CCK-HIDA gallbladder analysis sets, which included all randomized patients who received ≥1 dose of motesanib and had baseline and ≥1 evaluable follow-up ultrasound or CCK-HIDA, respectively, were used for the principal analysis of endpoints related to gallbladder size and characteristics. For each dosing scheme, estimates for the mean and maximum change from baseline in gallbladder size (volume as measured by ultrasound) and function (ejection fraction as measured by CCK-HIDA scan) were calculated. Mean change from baseline was calculated by taking the difference between the baseline gallbladder measurement and the average gallbladder measurement observed during study treatment. The mean (95% CI) difference was then calculated across all patients for each treatment arm, and for the whole study population. Maximum change from baseline in gallbladder size or volume was calculated by taking the difference between the baseline gallbladder measurement and the maximum gallbladder measurement observed during study treatment. The mean (95% CI) maximum change from baseline was then calculated across all patients for each treatment arm, and for the whole study population. Reversibility of changes in gallbladder volume and ejection fraction were evaluated calculating changes between the last on-treatment measurement and the last available measurement following the discontinuation of motesanib. Covariates (treatment, age, sex, body mass index, and nonsteroidal anti-inflammatory drug [NSAID] use) were explored in a linear regression model for potential relationships with gallbladder volume. Objective response was assessed for the safety analysis set, including only patients with measureable disease at baseline.

[2] = test system: patients with advanced metastatic solid tumors; experiment: Adverse events (NCI CTCAE version 3.0)
Procedure: AEs occurring during treatment and through the safety follow-up were recorded and graded according to the National Cancer Institute Common Terminology Criteria for Adverse Events (version 3.0).

[3] = Pharmacokinetic analysis of plasma motesanib concentrations (noncompartmental); conditions: for concentration at 24 h: read-out: Median Cmin (trough plasma concentration at 24 hours postdose); for Cmax: po, read-out: Median Cmax
Procedure: Blood samples were collected as follows: predose and at 30 minutes and 1, 2, 4, 6, 8, and 24 hours postdose on day 1 of weeks 1 and 4, and predose and 1 to 2 hours postdose at weeks 2, 3, and 7 and every 3 weeks thereafter. […] Motesanib concentrations were assessed as described previously.

gallbladder [4] = experiment: Specific gallbladder findings per independent ultrasound review
Procedure: as §1

gallbladder [5] = experiment: Gallbladder size (volume) by ultrasound, independent central review; conditions: for Mean change in gallbladder volume after discontinuation of motesanib (95% CI): last on-treatment to last available off-treatment measurement; for Gallbladder volume, mean change from baseline (95% CI): ultrasound
Procedure: as §1, §2

[6] = test system: advanced metastatic solid tumors; experiment: Tumor response per RECIST (investigator)
Procedure: Tumor response per RECIST [27] was assessed by the investigators. Magnetic resonance imaging or CT scans were performed at screening, every 6 weeks thereafter, and at the safety follow-up. Complete or partial responses were confirmed >28 days after the initial response assessment throughout the study. Patients who discontinued without a postbaseline tumor assessment or confirmation were considered nonresponders.
as §2

[7] = Arm B, 75 mg BID 2 wk on/1 wk off, n = 3
[8] = Arm B, 75 mg BID 2 wk on/1 wk off, n = 10
[9] = Arm C, 75 mg BID 5 d on/2 d off, n = 2
[10] = Arm C, 75 mg BID 5 d on/2 d off, n = 10
[11] = Arm B, 75 mg BID 2 wk on/1 wk off
[12] = Arm C, 75 mg BID 5 d on/2 d off
[13] = Arm A, 125 mg QD, post baseline, n = 23
[14] = Arm A, 125 mg QD, post treatment, n = 16
[15] = Arm B, 75 mg BID 2 wk on/1 wk off, post baseline, n = 11
[16] = Arm B, 75 mg BID 2 wk on/1 wk off, post treatment, n = 9
[17] = Arm C, 75 mg BID 5 d on/2 d off, post baseline, n = 11
[18] = Arm C, 75 mg BID 5 d on/2 d off, post treatment, n = 8
[19] = Arm B, 75 mg BID 2 wk on/1 wk off, n = 9
[20] = Arm B, 75 mg BID 2 wk on/1 wk off, n = 11
[21] = Arm C, 75 mg BID 5 d on/2 d off, n = 8
[22] = Arm C, 75 mg BID 5 d on/2 d off, n = 11

Mean change in ejection fraction after discontinuation of motesanib (95% CI) (gallbladder [1]; Arm A, 125 mg QD, n = 5): 10.8 (−45.8 to 67.4) %
Mean change in ejection fraction from baseline to last available off-treatment measurement (95% CI) (gallbladder [1]; Arm A, 125 mg QD, n = 5): −16.6 (−53.3 to 20.1) %
Gallbladder ejection fraction, maximum change from baseline (95% CI) (gallbladder [1]; Arm A, 125 mg QD, n = 21): −30.1 (−46.4 to −13.7) %
Gallbladder ejection fraction, mean change from baseline (95% CI) (gallbladder [1]; Arm A, 125 mg QD, n = 21): −24.1 (−38.2 to −9.9) %
Mean change in ejection fraction after discontinuation of motesanib (95% CI) (gallbladder [1]; [7]): 63.0 (24.0 to 102.0) %
Mean change in ejection fraction from baseline to last available off-treatment measurement (95% CI) (gallbladder [1]; [7]): 7.7 (−3.8 to 19.1) %
Gallbladder ejection fraction, maximum change from baseline (95% CI) (gallbladder [1]; [8]): −26.5 (−45.0 to −8.0) %
Gallbladder ejection fraction, mean change from baseline (95% CI) (gallbladder [1]; [8]): −25.0 (−43.9 to −6.1) %
Mean change in ejection fraction after discontinuation of motesanib (95% CI) (gallbladder [1]; [9]): 46.0 (−347.9 to 439.9) %
Mean change in ejection fraction from baseline to last available off-treatment measurement (95% CI) (gallbladder [1]; [9]): 14.5 (−55.4 to 84.4) %
Gallbladder ejection fraction, maximum change from baseline (95% CI) (gallbladder [1]; [10]): −6.5 (−29.8 to 16.8) %
Gallbladder ejection fraction, mean change from baseline (95% CI) (gallbladder [1]; [10]): −3.3 (−25.0 to 18.4) %
Gallbladder ejection fraction change from baseline, median (gallbladder [1]; across all patients): −18.0%
Gallbladder ejection fraction change from baseline, range (gallbladder [1]; across all patients): −81% to 67
Gallbladder ejection fraction decrease from baseline, mean (gallbladder [1]; across all patients, from 61.3% at baseline): 19.2%
Median motesanib concentration after wash-out period ([3]; Arm B, after the 1-week wash-out period, limit of quantitation 0.2 ng/mL): < 0.2 ng/mL
Median motesanib concentration after wash-out period ([3]; Arm C, after the 2-day wash-out period): 1.2 ng/mL
Drug accumulation ([3]; after QD administration): no evidence of drug accumulation
concentration at 24 h ([3]; human, plasma, oral, 75 mg, Arm B, 75 mg BID 2 wk on/1 wk off): 60 ng/mL
concentration at 24 h ([3]; human, plasma, oral, 75 mg, Arm C, 75 mg BID 5 d on/2 d off): 35 ng/mL
concentration at 24 h ([3]; human, plasma, oral, 125 mg, Arm A, 125 mg QD): 14 ng/mL
AUC ([3]; human, plasma, oral, range across the three dosing regimens, read-out: Median AUC): 1900 to 3000 ng·h/mL
Cmax ([3]; human, plasma, 75 mg, Arm B, 75 mg BID 2 wk on/1 wk off, plasma, oral): 323 ng/mL
Cmax ([3]; human, plasma, 75 mg, Arm C, 75 mg BID 5 d on/2 d off, plasma, oral): 355 ng/mL
Cmax ([3]; human, plasma, 125 mg, Arm A, 125 mg QD, plasma, oral): 630 ng/mL
Patients who developed de novo gallstones during treatment (gallbladder [4]; all arms): Two
Mean change in gallbladder volume from baseline to last available off-treatment measurement (95% CI) (gallbladder [5]; Arm A, 125 mg QD, n = 16): 10.4 (−10.0 to 30.8) cc
Mean change in gallbladder volume after discontinuation of motesanib (95% CI) (gallbladder [5]; Arm A, 125 mg QD, n = 16): −8.5 (−38.8 to 21.7) cc
Gallbladder volume, maximum change from baseline (95% CI) (gallbladder [5]; Arm A, 125 mg QD, n = 23): 45.6 (20.2–70.9) cc
Gallbladder volume, mean change from baseline (95% CI) (gallbladder [5]; Arm A, 125 mg QD, n = 23): 17.7 (6.4–28.9) cc
Mean change in gallbladder volume from baseline to last available off-treatment measurement (95% CI) (gallbladder [5]; [19]): −14.4 (−31.1 to 2.4) cc
Mean change in gallbladder volume after discontinuation of motesanib (95% CI) (gallbladder [5]; [19]): −16.2 (−37.4 to 5.1) cc
Gallbladder volume, maximum change from baseline (95% CI) (gallbladder [5]; [20]): 74.4 (41.3–107.4) cc
Gallbladder volume, mean change from baseline (95% CI) (gallbladder [5]; [20]): 26.8 (11.5–42.1) cc
Mean change in gallbladder volume from baseline to last available off-treatment measurement (95% CI) (gallbladder [5]; [21]): 7.1 (−28.9 to 43.0) cc
Mean change in gallbladder volume after discontinuation of motesanib (95% CI) (gallbladder [5]; [21]): −7.4 (−67.1 to 52.4) cc
Gallbladder volume, maximum change from baseline (95% CI) (gallbladder [5]; [22]): 67.3 (30.8–103.8) cc
Gallbladder volume, mean change from baseline (95% CI) (gallbladder [5]; [22]): 26.9 (8.8–45.1) cc
Gallbladder volume change from baseline during treatment, median (gallbladder [5]; across all patients): 17.3 cc
Gallbladder volume change from baseline during treatment, range (gallbladder [5]; across all patients): −43.3 to 83.2 cc
Gallbladder volume increase from baseline during treatment, mean (gallbladder [5]; across all patients, from 38.6 cc at baseline): 22.2 cc
SMILES: CC1(C)CNc2cc(NC(=O)c3cccnc3NCc3ccncc3)ccc21 [Motesanib]
Incidence of grade ≥3 treatment-related AEs ([2]; Arm A, 125 mg QD): 32%
Patients with serious grade 3 acute cholecystitis resulting in cholecystectomy ([2]; Arm A, approximately 1 month after treatment initiation): one
Patients with cholecystitis that resolved after treatment discontinuation ([2]; Arm A, grades 1, 2, 3, n = 1 each): Three
Patients with grade 1 gallbladder disorders (gallbladder dysfunction, gallbladder wall thickening) ([2]; Arm A, ongoing at safety follow-up): two
Incidence of grade ≥3 treatment-related AEs [2, 11]: 42%
Incidence of grade ≥3 treatment-related AEs [2, 12]: 33%
Patients with right upper quadrant pain during the study ([2]; all patients): Twelve
Patients with grade 4 AEs ([2]; all patients (one each in Arms B and C)): Two
Gallbladder toxicity events (all considered treatment-related), incidence ([2]; occurred only in Arm A, 125 mg QD): 12%
Incidence of biliary sludge (gallbladder [4]; Arm A, 125 mg QD): 39%
Gallstones, patient incidence (gallbladder [4]; Arm A, 125 mg QD, post baseline (any point during treatment), n = 23): 4 (17) n (%)
Common duct dilation, patient incidence (gallbladder [4]; [13]): 0 (0) n (%)
Pericholecystic fluid, patient incidence (gallbladder [4]; [13]): 1 (4) n (%)
Sludge, patient incidence (gallbladder [4]; [13]): 9 (39) n (%)
Gallstones, patient incidence (gallbladder [4]; Arm A, 125 mg QD, post treatment (last available off-treatment assessment), n = 16): 3 (19) n (%)
Common duct dilation, patient incidence (gallbladder [4]; [14]): 0 (0) n (%)
Pericholecystic fluid, patient incidence (gallbladder [4]; [14]): 0 (0) n (%)
Sludge, patient incidence (gallbladder [4]; [14]): 4 (25) n (%)
Incidence of biliary sludge (gallbladder [4]; [11]): 36%
Common duct dilation, patient incidence (gallbladder [4]; [15]): 0 (0) n (%)
Gallstones, patient incidence (gallbladder [4]; [15]): 2 (18) n (%)
Pericholecystic fluid, patient incidence (gallbladder [4]; [15]): 1 (9) n (%)
Sludge, patient incidence (gallbladder [4]; [15]): 4 (36) n (%)
Common duct dilation, patient incidence (gallbladder [4]; [16]): 0 (0) n (%)
Gallstones, patient incidence (gallbladder [4]; [16]): 2 (22) n (%)
Pericholecystic fluid, patient incidence (gallbladder [4]; [16]): 0 (0) n (%)
Sludge, patient incidence (gallbladder [4]; [16]): 4 (44) n (%)
Incidence of biliary sludge (gallbladder [4]; [12]): 27%
Common duct dilation, patient incidence (gallbladder [4]; [17]): 0 (0) n (%)
Gallstones, patient incidence (gallbladder [4]; [17]): 0 (0) n (%)
Pericholecystic fluid, patient incidence (gallbladder [4]; [17]): 0 (0) n (%)
Sludge, patient incidence (gallbladder [4]; [17]): 3 (27) n (%)
Common duct dilation, patient incidence (gallbladder [4]; [18]): 0 (0) n (%)
Gallstones, patient incidence (gallbladder [4]; [18]): 0 (0) n (%)
Pericholecystic fluid, patient incidence (gallbladder [4]; [18]): 0 (0) n (%)
Sludge, patient incidence (gallbladder [4]; [18]): 0 (0) n (%)
Durable (≥24 weeks) stable disease ([6]; Arm A, n = 6): 25%
Progressive disease ([6]; Arm A, n = 8): 33%
Stable disease as best tumor response ([6]; Arm A, n = 15): 63%
Durable (≥24 weeks) stable disease ([6]; Arm B, n = 1): 8%
Progressive disease ([6]; Arm B, n = 3): 25%
Stable disease as best tumor response ([6]; Arm B, n = 6): 50%
Patients with confirmed partial response ([6]; Arm B, stage IV thyroid cancer): one
Durable (≥24 weeks) stable disease ([6]; Arm C, n = 1): 9%
Progressive disease ([6]; Arm C, n = 4): 36%
Stable disease as best tumor response ([6]; Arm C, n = 7): 64%
Complete responses ([6]; all patients): No complete responses were achieved
Durable (≥24 weeks) stable disease ([6]; all patients (8 patients)): 17%
Progressive disease ([6]; all patients (fifteen patients)): 32%
Stable disease as best tumor response ([6]; all patients (twenty-eight patients)): 60%
Overall objective response rate ([6]; all patients with measurable disease at baseline, RECIST): 2%
